Results as given in patent US10383955B2, “Human mast cell lines, preparation and uses” (CENTRE NATIONAL DE LA RECHERCHE SCIENTIFIQUE, priority 2011, dated 2019).
“Also recorded” adds a separate entry of the source.

Columns and labels:
[1] = test system: cells of the ROSA KIT WT line; experiment: Membrane CD203c expression after stimulation (flow cytometry); type: cell-based, human; conditions: cells treated with IL-4 + IgE 5 days; anti-IgE 5 or 10 μg/ml or calcium ionophore 1 μmol/l, 1 hour
Experimental: In order to know whether the cells of the ROSA KIT WT line can be activated by the IgE-anti-IgE antibody coupling, resulting in degranulation with immediate release of histamine and of β-hexosaminidase associated with a significant increase in membrane CD203c expression and with delayed release of TNF-alpha, cells are treated with IL-4 (20 ng/ml) and IgE (2 μg/ml) (Merck Bioscience) for 5 days and then stimulated with anti-IgE (5 or 10 μg/ml) (Biovalley) or with the calcium ionophore (Cai) (Sigma) (1 μmol/l) for 1 or 6 hours. The 1 hour supernatant and also the pellet are used to assay the histamine and to measure the expression of CD203c at the cell surface, while the TNF-alpha is measured by a specific ELISA method in the supernatant of the cells after 6 hours of stimulation.
One ml of cells treated with IL-4 (20 ng/ml) and IgE (2 μg/ml) for 5 days are washed twice with 3 ml of PBS and then again placed in culture medium at a concentration of 1×10^6 cells/ml. These cells are then stimulated with anti-IgE (5 or 10 μg/ml) or with the calcium ionophore (Cai) (1 μmol/l) for 1 hour. The cells are washed with PBS and put back into 100 μl of PBS, 1% FCS in the presence of an antibody directed against human CD203c, coupled to phycoerythrin (PE) (20 μl/l million cells) (Biolegend).

[2] = test system: cells of the ROSA KIT WT line; experiment: β-hexosaminidase release after stimulation; type: cell-based, human; conditions: cells treated with IL-4 20 ng/ml and IgE 2 μg/ml; anti-IgE 5 μg/ml or calcium ionophore 1 μmol/l, 1 hour
Experimental: The activation of the cells of the ROSA KIT WT line was also measured by determining the released β-hexosaminidase activity. ROSA cells treated with IL-4 (20 ng/ml) and IgE (2 μg/ml) are subsequently activated for 1 hour at 37° C. in the presence of 5% CO2, with the anti-IgE antibody (5 μg/ml) or with the calcium ionophore (Cai) (1 μmol/l).
The cells are then centrifuged and the supernatants are recovered and frozen at −80° C. until the time of the assay. The cells are then lysed. The β-hexosaminidase activity is measured in the supernatant and also in the cell pellet as described by Schwartz and Austen, J Invest Dermatol., 74, 349-353, 1980.
The hydrolysis of p-nitrophenyl-2-acetamido-2-deoxy-β-D-glucopyranoside (or 4-nitrophenyl-N-acetyl-β-D-glucosaminide) by β-hexosaminidase leads to the release of a chromophore product: p-nitrophenol. The latter is measured by spectrophotometry at 405 nm. • 50 μl of p-nitrophenyl-2-acetamido-2-deoxy-β-D-glucopyranoside (Sigma) are added to 5 μl of supernatant • Incubation for 2 hours at 37° C. with stirring. • Addition of 150 μl of stop solution (7.5 g of glycine in 500 ml of H2O, pH=10.7). Reading at 405 nm.

[3] = test system: subclone HMC-1.2 (KIT V560G and D816V); conditions: two KIT mutations (V560G and D816V); cited from earlier work
[4] = test system: ROSA KIT Delta 417-419 insY line; experiment: Proliferation of ROSA KIT Delta 417-419 insY line with tyrosine kinase inhibitors (WST-1); type: cell-based, human; conditions: 1 μM/l, 48 hours, without SCF, relative to DMSO 0.1%
Experimental: (§1) Finally, the inventors evaluated the effect of two molecules which inhibit tyrosine kinase activity, imatinib and dasatinib (both supplied by Sequoia Research), on the proliferation of the 3 ROSA KIT WT, ROSA KIT D816V and ROSA KIT Delta 417-419 insY lines. To do this, the cells were seeded at a starting concentration of 3×10^5 cells per ml in 96-well plates (100 μl per well) and incubated at 37° C. in an incubator (5% CO2 in air) for 48 hours in the presence of 1 μM/l of imatinib or of dasatinib (in DMSO brought to a final concentration of 0.1%) or in the presence of DMSO alone (0.1% final concentration) in their usual culture medium (containing human SCF at 80 ng/ml for the ROSA KIT WT line but without SCF for the ROSA KIT D816V and ROSA KIT Delta 417-419 insY lines). At the end of this incubation, 10 μl of WST-1 (Roche Applied Science) are added to each well and the cells are incubated for a further 3 hours in an incubator at 37° C. The number of live cells is then measured for each condition by reading the absorbance at 450 nm using a Multiskan MS plate reader (Thermo LabSystems).
(§2) The results obtained for each line (presented in FIG. 15) are expressed as % of live cells (the condition DMSO alone at 0.1% final concentration being considered to contain 100% of live cells).

KIT D816V mutation = KIT D816V mutation (Homo sapiens, UniProt P10721, D816V); conditions: cited from earlier work
KIT D816V mutation, sequence (P10721 26-976 D816V): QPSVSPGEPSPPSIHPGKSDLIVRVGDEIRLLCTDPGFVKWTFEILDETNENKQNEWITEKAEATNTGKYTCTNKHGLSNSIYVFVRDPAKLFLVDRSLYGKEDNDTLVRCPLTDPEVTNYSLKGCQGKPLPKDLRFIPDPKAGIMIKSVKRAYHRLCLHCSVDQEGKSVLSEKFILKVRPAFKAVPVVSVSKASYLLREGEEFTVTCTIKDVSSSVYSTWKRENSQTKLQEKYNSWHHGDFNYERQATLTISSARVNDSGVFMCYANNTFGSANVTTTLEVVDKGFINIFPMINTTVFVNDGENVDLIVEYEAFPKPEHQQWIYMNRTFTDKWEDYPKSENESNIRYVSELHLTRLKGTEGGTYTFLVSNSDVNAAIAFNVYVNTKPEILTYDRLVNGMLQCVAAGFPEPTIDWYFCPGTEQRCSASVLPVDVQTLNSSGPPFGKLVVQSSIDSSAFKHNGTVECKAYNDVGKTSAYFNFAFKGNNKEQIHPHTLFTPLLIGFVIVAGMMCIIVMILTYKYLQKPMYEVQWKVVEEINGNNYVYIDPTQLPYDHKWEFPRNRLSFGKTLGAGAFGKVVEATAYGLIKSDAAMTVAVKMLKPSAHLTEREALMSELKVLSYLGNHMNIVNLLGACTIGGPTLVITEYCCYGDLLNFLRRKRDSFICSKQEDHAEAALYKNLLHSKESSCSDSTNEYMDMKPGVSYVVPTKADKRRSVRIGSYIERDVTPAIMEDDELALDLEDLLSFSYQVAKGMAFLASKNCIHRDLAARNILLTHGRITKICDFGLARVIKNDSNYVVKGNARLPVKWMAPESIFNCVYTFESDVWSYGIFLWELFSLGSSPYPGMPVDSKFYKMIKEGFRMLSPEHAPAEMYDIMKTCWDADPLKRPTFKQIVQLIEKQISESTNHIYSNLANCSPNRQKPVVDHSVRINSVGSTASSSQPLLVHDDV

ROSA KIT WT line = experiment: Proliferation of ROSA KIT WT line with tyrosine kinase inhibitors (WST-1); type: cell-based; conditions: 1 μM/l, 48 hours, medium with human SCF 80 ng/ml, relative to DMSO 0.1%
Experimental: as §1, §2

ROSA KIT D816V line = experiment: Proliferation of ROSA KIT D816V line with tyrosine kinase inhibitors (WST-1); type: cell-based, human; conditions: 1 μM/l, 48 hours, without SCF, relative to DMSO 0.1%
Experimental: as §1, §2

[5] = test system: HMC-1, subclone HMC-1.1 (KIT V560G); conditions: juxtamembrane KIT V560G mutation; cited from earlier work
[6] = in therapy; cited from earlier work
[7] = test system: cells of the ROSA KIT WT line; experiment: FcεRI and KIT expression after IL-4 treatment (flow cytometry); type: cell-based, human; conditions: IL-4 20 ng/ml for 5 days
Experimental: Since it has been shown in the literature that interleukin-4 (IL-4) induces a decrease in KIT expression and an increase in FcεR1 expression by normal human mast cells, the inventors wanted to verify whether this phenomenon could also be observed on the ROSA KIT WT line. For this, they used the following technique: • 10 ml of cells in culture at approximately 2×10^5 cell/ml are used for each tube. • The cells are centrifuged and the pellet is taken up in 10 ml of new culture medium and then the cells are treated with IL-4 (20 ng/ml) (R&D) for 5 days. • The cells are centrifuged in order to remove the culture medium. • The pellets are taken up in 100 μl of PBS+1% FCS, and incubated for 45 min at +4° C. in the presence of anti-human IgE antibody coupled to FITC (20 μl/l million cells (Merck Bioscience)), or in the presence of anti-human KIT antibody coupled to APC (20 μl/l million cells) (Biolegend). • Two rinses are carried out in 3 ml of PBS, 0.1% FCS, and then the tubes are centrifuged. • The pellets are collected in 300 μl of PBS, 0.1% FCS.
The reading is carried out by FACS (BD FACSCalibur).

[8] = test system: ROSA KIT WT, ROSA KIT Delta 417-419 insY and KIT D816V lines; experiment: Membrane marker expression in the three ROSA lines (flow cytometry); type: cell-based, human; conditions: IL-4 20 ng/ml
Description: Moreover, the expression of certain membrane markers present on the cells of the ROSA KIT Delta 417-419 insY and KIT D816V lines, optionally present in the presence of SCF, was studied by flow cytometry, this expression being compared with that of the cells of the ROSA KIT WT line. The results obtained (presented in FIG. 12) were the following: • the cells of the ROSA KIT Delta 417-419 insY and KIT D816V lines spontaneously express (in the absence of SCF) more CD38, CD203c and KIT than the cells of the ROSA KIT WT line, this increase in expression being completely abolished in the presence of SCF, • the cells of the KIT D816V line express more CD54 than the cells of the other two lines, whether in the absence or in the presence of SCF, • the cells of the KIT D816V line express more FcεR1 than the cells of the other two lines in the absence of SCF, this phenomenon being abolished by adding SCF, • the cells of the ROSA KIT Delta 417-419 insY and KIT D816V lines express, in the presence of SCF, more CD63 than the cells of the ROSA KIT WT line, this increase in expression being completely abolished in the absence of SCF, • the expression of CD53 and of FcεR1 is increased in the 3 lines by treatment with IL-4 (20 ng/ml), and • the expression of KIT is decreased in the three lines by treatment with IL-4 (20 ng/ml).

Q: Which “membrane CD203c expression” value [1] does the source give for CNc1ccc2oc(C[C@H]3O[C@@]4(CC[C@H]3C)O[C@H]([C@H](C)C(=O)c3ccc[nH]3)[C@H](C)C[C@H]4C)nc2c1C(=O)O [calcium ionophore, calcium ionophore A23187] here?
A: increase

Q: What about the “β-hexosaminidase release, of the total enzyme content of the cells” value [2] of the same compound?
A: up to 80%

Q: Which “sensitivity of the line” value [3] does the source give for Cc1ccc(NC(=O)c2ccc(CN3CCN(C)CC3)cc2)cc1Nc1nccc(-c2cccnc2)n1 [imatinib] here?
A: not

Q: And the “inhibition of proliferation (% of live cells)” value (“inhibition … (% of live cells)” for short) [4]?
A: sensitivity

Q: And the “inhibition … (% of live cells)” value ([4]; listed as Imatinib)?
A: sensitive

Q: What about the “activity on the KIT D816V mutation” value (KIT D816V mutation) of the same compound?
A: completely inactive

Q: What about the “inhibition … (% of live cells)” value (ROSA KIT WT line) of the same compound?
A: sensitive

Q: And the “inhibition … (% of live cells)” value (ROSA KIT D816V line)?
A: resistance; also recorded: incapable of inhibiting the proliferation

Q: What about the “sensitivity of the line” value [5] of the same compound?
A: sensitive

Q: Which toxicity in humans [6] does the source give for Cc1nc(Nc2ncc(C(=O)Nc3c(C)cccc3Cl)s2)cc(N2CCN(CCO)CC2)n1 [dasatinib] here?
A: high toxicity

Q: Which KIT expression [7] does the source give for IL-4: interleukin-4 cytokine (R&D) here?
A: decrease

Q: What about the “expression of the high-affinity IgE receptor” value [7] of the same compound?
A: increase

Q: And the “expression of CD53” value ([8]; in the 3 lines)?
A: increased

Q: And the “expression of FcεR1” value ([8]; in the 3 lines)?
A: increased

Q: And the “expression of KIT” value ([8]; in the three lines)?
A: decreased
